Tests used:
CP1B = molecular target: T1, CP1B (Zea mays, UniProt K7TP58); test: fluorogenic substrate cleavage assay, apoplastic fluid of overexpressing N. benthamiana; type: cell-based
T1 construct: gene LOC100283284

CP1C = molecular target: T2, CP1C (Zea mays, UniProt B4FS90); test: as above; type: cell-based; conditions: 10 uM Z-LR-AMC, pH 6, 0.5 mM DTT; covalent irreversible active-site inhibitor
T2 sequence (B4FS90 150-389 limits assumed): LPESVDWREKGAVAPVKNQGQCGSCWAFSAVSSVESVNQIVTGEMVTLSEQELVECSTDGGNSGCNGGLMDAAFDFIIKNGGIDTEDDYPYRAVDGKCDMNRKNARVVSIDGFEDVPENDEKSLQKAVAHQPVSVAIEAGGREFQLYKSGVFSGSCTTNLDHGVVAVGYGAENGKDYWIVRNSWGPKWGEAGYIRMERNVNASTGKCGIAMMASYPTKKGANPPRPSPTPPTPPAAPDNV

T1 sequence (K7TP58 135-372 limits assumed): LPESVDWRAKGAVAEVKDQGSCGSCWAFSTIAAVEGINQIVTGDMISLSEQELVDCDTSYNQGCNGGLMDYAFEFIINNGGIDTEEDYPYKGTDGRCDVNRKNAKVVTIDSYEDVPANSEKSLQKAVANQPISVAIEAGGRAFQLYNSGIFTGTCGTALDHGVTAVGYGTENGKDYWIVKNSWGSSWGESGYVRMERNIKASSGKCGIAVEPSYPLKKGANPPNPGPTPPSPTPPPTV

CC(C)C[C@H](NC(=O)[C@H]1O[C@@H]1C(=O)O)C(=O)NCCCCN=C(N)N [E-64]
IC50 (CP1B): 10 ± 0.9 nM
IC50 (CP1C): 3.2 ± 0.2 nM

Source: publication PMC6503450, “Proteases Underground: Analysis of the Maize Root Apoplast Identifies Organ Specific Papain-Like Cysteine Protease Activity” (Frontiers in Plant Science, 2019)
